Experimental data as given in ChEMBL document CHEMBL1201862, “PubChem BioAssay data set” (2004).
Activity calls are given as the source filed them. For most assays here, no stated cut-off is given here; in the data, actives have a measured IC50 and inactives only a lower limit.

Columns and labels:
Caspase-3 = molecular target: T1, Caspase-3 (Homo sapiens, UniProt P42574); assay type: functional;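 further: Dose-response selectivity test against caspase-3 for candidate inhibitors of sentrin-specific proteases (SENPs)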
T1 sequence (P42574 whole entry): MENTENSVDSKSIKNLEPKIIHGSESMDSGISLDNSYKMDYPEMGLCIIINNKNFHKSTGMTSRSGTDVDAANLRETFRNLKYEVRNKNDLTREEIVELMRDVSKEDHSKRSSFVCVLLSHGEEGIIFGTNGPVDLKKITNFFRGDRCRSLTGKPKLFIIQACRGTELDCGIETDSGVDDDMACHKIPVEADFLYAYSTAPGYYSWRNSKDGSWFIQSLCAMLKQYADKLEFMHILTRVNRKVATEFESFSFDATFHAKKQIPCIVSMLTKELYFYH

[1] = molecular target: T2, Sentrin-specific protease 7 (Homo sapiens, UniProt Q9BQF6); assay type: functional;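 further: Luminescence-based dose-response confirmation of ultra-high-throughput screening hits, measuring inhibition of SENP7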
T2 sequence (Q9BQF6 whole entry): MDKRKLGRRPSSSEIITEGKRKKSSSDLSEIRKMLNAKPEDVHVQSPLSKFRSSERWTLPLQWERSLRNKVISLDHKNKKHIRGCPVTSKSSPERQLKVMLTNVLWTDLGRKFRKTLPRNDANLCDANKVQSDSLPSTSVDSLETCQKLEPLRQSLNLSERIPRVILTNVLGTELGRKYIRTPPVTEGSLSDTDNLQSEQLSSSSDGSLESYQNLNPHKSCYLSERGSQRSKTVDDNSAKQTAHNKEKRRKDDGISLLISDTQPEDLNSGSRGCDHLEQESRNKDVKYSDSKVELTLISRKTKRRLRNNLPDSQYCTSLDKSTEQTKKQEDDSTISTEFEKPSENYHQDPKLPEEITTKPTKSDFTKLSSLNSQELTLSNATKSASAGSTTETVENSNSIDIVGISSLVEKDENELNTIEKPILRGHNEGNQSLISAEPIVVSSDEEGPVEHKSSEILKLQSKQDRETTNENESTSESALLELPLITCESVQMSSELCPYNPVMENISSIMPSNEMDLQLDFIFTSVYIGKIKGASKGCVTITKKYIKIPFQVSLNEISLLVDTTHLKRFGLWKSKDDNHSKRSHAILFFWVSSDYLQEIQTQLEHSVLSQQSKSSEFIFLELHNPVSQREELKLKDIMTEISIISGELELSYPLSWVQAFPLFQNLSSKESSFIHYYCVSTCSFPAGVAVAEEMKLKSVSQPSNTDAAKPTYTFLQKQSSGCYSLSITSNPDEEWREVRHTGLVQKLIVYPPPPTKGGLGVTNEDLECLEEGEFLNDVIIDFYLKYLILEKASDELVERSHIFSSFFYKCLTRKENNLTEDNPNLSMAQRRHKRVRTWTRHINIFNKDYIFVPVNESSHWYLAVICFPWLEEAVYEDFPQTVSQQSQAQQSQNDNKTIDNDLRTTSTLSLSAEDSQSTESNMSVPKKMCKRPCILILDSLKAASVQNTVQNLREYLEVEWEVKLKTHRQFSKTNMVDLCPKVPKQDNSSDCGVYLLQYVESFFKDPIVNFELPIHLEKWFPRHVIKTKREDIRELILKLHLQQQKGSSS

[2] = molecular target: T3, Sentrin-specific protease 6 (Homo sapiens, UniProt Q9GZR1); assay type: functional;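 further: Luminescence-based dose-response confirmatory assay of SENP6 inhibition, following up an ultra-high-throughput screen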
T3 sequence (Q9GZR1 whole entry): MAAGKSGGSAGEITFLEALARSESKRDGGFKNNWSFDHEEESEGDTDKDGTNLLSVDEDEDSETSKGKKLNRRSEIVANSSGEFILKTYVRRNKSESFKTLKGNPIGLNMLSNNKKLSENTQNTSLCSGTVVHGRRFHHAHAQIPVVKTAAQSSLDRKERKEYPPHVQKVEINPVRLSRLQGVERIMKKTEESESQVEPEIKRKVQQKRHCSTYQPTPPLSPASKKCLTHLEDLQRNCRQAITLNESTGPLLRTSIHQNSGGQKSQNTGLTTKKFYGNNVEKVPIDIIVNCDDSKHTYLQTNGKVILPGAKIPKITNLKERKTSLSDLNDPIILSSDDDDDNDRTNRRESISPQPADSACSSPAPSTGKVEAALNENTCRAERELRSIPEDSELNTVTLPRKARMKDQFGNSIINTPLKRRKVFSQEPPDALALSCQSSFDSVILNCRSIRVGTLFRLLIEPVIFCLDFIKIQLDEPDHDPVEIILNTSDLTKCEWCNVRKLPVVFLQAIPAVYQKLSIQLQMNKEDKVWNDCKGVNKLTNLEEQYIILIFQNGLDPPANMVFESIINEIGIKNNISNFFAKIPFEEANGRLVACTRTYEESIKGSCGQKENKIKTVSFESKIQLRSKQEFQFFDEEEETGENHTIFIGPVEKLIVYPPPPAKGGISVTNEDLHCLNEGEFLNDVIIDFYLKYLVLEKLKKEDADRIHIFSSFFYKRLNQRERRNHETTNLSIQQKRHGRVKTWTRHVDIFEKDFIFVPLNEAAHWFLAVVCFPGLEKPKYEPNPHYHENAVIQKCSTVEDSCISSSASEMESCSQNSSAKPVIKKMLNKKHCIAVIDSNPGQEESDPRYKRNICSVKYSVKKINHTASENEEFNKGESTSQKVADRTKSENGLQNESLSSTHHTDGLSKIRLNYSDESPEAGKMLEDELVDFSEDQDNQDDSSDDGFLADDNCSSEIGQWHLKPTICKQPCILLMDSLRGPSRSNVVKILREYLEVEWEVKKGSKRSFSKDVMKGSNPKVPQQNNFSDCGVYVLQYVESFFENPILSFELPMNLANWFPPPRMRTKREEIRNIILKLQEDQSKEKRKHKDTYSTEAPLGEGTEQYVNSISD

[3] = molecular target: T4, Sentrin-specific protease 8 (Homo sapiens, UniProt Q96LD8); assay type: functional;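 further: luminescence read-out of SENP8 inhibition, dose-response confirmation following an ultra-high-throughput screen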
T4 sequence (Q96LD8 whole entry): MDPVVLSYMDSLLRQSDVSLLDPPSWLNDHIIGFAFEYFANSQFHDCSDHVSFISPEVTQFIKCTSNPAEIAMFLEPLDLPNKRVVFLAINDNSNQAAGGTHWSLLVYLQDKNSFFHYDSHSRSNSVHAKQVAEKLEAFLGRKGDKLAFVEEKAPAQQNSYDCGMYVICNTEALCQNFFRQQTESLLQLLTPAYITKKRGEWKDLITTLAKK

[4] = molecular target: T5, Corticotropin-releasing factor receptor 2/Corticotropin-releasing factor-binding protein (Homo sapiens, UniProt P24387+Q13324); test: Dose Response confirmation of uHTS hits for small molecule antagonists of the CRF-binding protein and CRF-R2 receptor complex.; assay type: functional; conditions: read-out: IC50_Mean
T5 sequence (Q13324 whole entry): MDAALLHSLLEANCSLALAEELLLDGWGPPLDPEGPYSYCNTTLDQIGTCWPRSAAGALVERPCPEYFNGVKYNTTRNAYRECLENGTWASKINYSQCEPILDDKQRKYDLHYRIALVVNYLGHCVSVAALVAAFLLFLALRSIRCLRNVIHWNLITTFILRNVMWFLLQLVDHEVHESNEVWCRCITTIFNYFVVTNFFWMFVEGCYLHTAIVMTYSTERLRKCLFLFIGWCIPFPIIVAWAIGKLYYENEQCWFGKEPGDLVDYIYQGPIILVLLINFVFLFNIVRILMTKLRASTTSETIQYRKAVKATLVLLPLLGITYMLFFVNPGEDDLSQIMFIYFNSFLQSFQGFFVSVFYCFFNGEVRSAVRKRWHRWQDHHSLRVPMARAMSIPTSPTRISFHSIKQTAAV
T5 sequence (P24387 whole entry): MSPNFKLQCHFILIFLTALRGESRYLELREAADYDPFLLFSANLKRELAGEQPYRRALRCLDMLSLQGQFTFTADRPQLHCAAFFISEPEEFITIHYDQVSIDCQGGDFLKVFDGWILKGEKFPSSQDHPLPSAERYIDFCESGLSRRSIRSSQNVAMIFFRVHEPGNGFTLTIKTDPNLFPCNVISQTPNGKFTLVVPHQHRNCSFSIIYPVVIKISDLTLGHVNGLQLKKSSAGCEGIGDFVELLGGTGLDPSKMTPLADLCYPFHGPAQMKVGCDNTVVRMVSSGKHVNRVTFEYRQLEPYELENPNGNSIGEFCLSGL

[5] = molecular target: T5, Corticotropin-releasing factor receptor 2/Corticotropin-releasing factor-binding protein; test: activators of CRF receptor 2 with binding protein – uHTS hits, confirmation (AID 602473); assay type: functional; conditions: read-out: EC50_Mean
Cytochrome P450 2D6 = Cytochrome P450 2D6 (Homo sapiens, UniProt P10635);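 further: CYP2D6 member of a cytochrome P450 panel assay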
Cytochrome P450 2C9 = Cytochrome P450 2C9 (Homo sapiens, UniProt P11712)
[6] = molecular target: T6, Heat shock factor protein 1 (Mus musculus, UniProt P38532); test: HSF1 potentiators in luciferase reporter cells, confirmation, cell-based, NIH3T3, luminescence, dose retest (AID 435004); assay type: functional;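 further: stress induced by proteasome inhibitor MG132 added 30 min after compound; luciferase reporter driven by HSF1 response element in NIH3T3 cells; actives raise luminescence as potentiators of the MG132 stress response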
T6 sequence (P38532 whole entry): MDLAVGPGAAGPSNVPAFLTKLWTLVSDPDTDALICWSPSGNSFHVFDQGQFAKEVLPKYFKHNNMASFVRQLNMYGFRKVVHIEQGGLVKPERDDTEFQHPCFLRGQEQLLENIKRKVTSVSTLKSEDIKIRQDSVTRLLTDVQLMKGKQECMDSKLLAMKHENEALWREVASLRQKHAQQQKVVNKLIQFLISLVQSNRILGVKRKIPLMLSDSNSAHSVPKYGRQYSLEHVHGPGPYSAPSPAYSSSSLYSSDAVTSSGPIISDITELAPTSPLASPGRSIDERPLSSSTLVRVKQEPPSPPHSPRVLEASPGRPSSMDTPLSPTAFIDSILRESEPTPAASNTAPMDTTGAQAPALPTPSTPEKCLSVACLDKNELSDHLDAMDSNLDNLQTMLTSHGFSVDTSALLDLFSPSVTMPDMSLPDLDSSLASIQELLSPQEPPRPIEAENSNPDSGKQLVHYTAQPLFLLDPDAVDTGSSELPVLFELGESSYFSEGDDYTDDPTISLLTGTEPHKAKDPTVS

Chain of Cytochrome P450 2D6 (P10635 whole entry): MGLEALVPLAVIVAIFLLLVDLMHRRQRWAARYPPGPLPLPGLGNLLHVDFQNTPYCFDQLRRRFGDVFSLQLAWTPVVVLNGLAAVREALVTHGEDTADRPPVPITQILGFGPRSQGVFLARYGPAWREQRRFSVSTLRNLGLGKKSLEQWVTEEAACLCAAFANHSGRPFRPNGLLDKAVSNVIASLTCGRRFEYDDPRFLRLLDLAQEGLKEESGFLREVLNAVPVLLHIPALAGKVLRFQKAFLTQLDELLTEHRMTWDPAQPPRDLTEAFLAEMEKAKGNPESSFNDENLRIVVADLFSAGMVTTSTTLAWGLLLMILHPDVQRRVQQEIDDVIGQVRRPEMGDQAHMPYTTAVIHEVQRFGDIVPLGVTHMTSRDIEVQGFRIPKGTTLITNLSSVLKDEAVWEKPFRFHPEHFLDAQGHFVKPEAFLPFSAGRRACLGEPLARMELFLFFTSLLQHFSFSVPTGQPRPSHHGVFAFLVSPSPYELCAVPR
Chain of Cytochrome P450 2C9 (P11712 whole entry): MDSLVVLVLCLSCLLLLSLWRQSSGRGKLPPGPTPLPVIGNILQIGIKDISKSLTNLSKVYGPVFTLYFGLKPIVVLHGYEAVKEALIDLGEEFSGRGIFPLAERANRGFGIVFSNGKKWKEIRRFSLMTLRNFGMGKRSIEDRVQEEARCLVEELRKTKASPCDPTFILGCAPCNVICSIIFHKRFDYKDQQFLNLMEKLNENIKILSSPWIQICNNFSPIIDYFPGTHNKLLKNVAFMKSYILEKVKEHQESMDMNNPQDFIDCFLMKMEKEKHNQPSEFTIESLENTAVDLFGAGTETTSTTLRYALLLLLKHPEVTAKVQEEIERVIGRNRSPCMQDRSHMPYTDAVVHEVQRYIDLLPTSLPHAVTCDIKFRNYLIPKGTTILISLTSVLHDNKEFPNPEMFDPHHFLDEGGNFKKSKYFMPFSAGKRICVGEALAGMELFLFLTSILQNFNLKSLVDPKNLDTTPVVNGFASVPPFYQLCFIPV

| Structure (SMILES) | IC50 (Caspase-3) | IC50 [1] | IC50 [2] | IC50 [4] | EC50 [5] | AC50 (Cytochrome P450 2D6) | AC50 (Cytochrome P450 2C9) | EC50 [6] | IC50 [3] |
| --- | --- | --- | --- | --- | --- | --- | --- | --- | --- |
| CC(=O)c1c(C)oc2ccc(OCc3ccccc3)cc12 | 39 µM (active) | 11.4 µM (active) | 45.3 µM (active) |  |  |  |  |  | 75.8 µM (active) |
| O=C(Nc1cccs1)Nc1ccc(Br)cc1F | 45.8 µM (active) | 11.4 µM (active) | 86.7 µM (active) |  |  |  |  |  | > 100 µM (inactive) |
| COC(=O)c1sccc1NC(=O)Cc1ccc(Br)cc1 | 17.9 µM (active) | 7.65 µM (active) | 20.3 µM (active) |  |  |  |  |  | 24.8 µM (active) |
| O=c1oc(-c2ccco2)nc2sc3c(c12)CCCC3 | 41.7 µM (active) | 5.4 µM (active) | 35.1 µM (active) | > 47.1 µM (inactive) | > 53 µM (inactive) |  |  |  | > 100 µM (inactive) |
| O=C(Nc1ccc(Cl)cn1)c1ccc(Oc2ccccc2)cc1 | 5.66 µM (active) | 2.3 µM (active) | 3.22 µM (active) |  |  |  |  |  | 3.37 µM (active) |
| Cc1cc(C)nc(NC(=O)/C=C/c2ccc(Cl)cc2Cl)c1 | 14.1 µM (active) | 3.39 µM (active) | 3.51 µM (active) |  |  | 20 µM (inconclusive) | inconclusive |  | 3.93 µM (active) |

The next lines start with results.

| IC50 (Caspase-3) | IC50 [1] | IC50 [2] | IC50 [4] | EC50 [5] | AC50 (Cytochrome P450 2D6) | AC50 (Cytochrome P450 2C9) | EC50 [6] | Structure (SMILES) | IC50 [3] |
| --- | --- | --- | --- | --- | --- | --- | --- | --- | --- |
| 13.3 µM (active) | 8.96 µM (active) | 11.5 µM (active) |  |  |  |  |  | COc1ccc(C(=O)O/N=C(\N)c2ccc(OC)c(OC)c2)cc1 | 11.5 µM (active) |
| 44.2 µM (active) | 4.46 µM (active) | 10.3 µM (active) |  |  |  |  |  | COc1ccc(-c2cc(-c3cc(C)ccc3O)n[nH]2)cc1 | 9.6 µM (active) |
| 4.38 µM (active) | 1.99 µM (active) | 5.08 µM (active) |  |  |  |  | > 260 µM (inactive) | COc1ccc(/N=C(\C)C2=C(O)c3ccccc3C2=O)cc1 | 6.43 µM (active) |
| 2.23 µM (active) | 2.15 µM (active) | 2.34 µM (active) |  |  |  |  |  | O=C(O/N=C1\CCCc2ccccc21)c1ccc(F)cc1 | 2.09 µM (active) |
